Series [1] concerns FaDu subcutaneous tumors. In words: Biodistribution of His-BPA, FaDu tumors in vivo. On the set-up: species or system female CB17 SCID mice. The note with it: His-BPA 4X higher dose than BPA-F. The procedure:
In this experiment, biodistribution of His-BPA was evaluated in vivo using the following protocols. All animal studies were carried out following the “Guide for the Care and Use the Laboratory Animals,” 8th Ed. and Animal Welfare Act (USDA). Human hypopharyngeal squamous cell carcinoma FaDu cells were maintained in DMEM, supplemented with L-glutamine and 10% FBS.
Subcutaneous (s.c.) tumors were generated by injection of 2.5 × 10^6 cancer cells mixed at a 1:1 dilution with Matrigel (Corning Life Sciences) in the right flank of female CB17 SCID mice. Tumor sizes were determined by caliper measurements, and the tumor volume was calculated as width^2×Length/2, wherein width is the smallest dimension and length is the largest dimension. Tumors were allowed to grow untreated until they reached an approximate volume of 300 mm^3. At that point, animals were randomized and allocated to each treatment group based on tumor volume at the time of treatment initiation to ensure similar mean tumor size and variation in each group. Each group received a single dose of BPA at […] or a test article at […] via intravenous tail vein injection. […]
Furthermore, all compounds tested, with the exception of BPA were prepared as 80-100 mg/mL stocks. […] The digested tissues were analyzed by ICP OES to determine the boron concentration.

The test system of series [2] is AsPC-1 cells. Put plainly: Uptake inhibition by PEPT1 competitive inhibitor Gly-SAR. In kind it is cell-based, human. The settings on record: 0.8 mM test compound, with and without Gly-SAR. How it is done: (§1) In this experiment, uptake of BPA and dipeptide His-BPA (0.8 mM of each) was carried out in FaDu and ASPC-1 in the presence and absence of the indicated concentrations of PEPT1 dipeptide transporter competitive inhibitor Gly-SAR. Normalized boron uptake was determined as in FIG. 15.

Series [3] concerns FaDu cells. The description is as above. Format: cell-based, human. The procedure:
as §1

Series [4] deals with CT26 xenografts. In words: BNCT tumor regression study, 6 minute irradiation. In kind it is in vivo, BALB/c mice. The note with it: 900 mg/kg, 6 minutes irradiation. How it is done:
In this experiment, CT26 xenografts in BALB/c mice were dosed with 400 mg/kg of BPA or 900 mg/kg of His-BPA or BPA-BPA. Following one (1) hour treatment time, mice were irradiated for 6 minutes at the Kyoto University Research Reactor (Kyoto, Japan) 1 set at 5 megawatts. Data are the means ± SD of 3 mice per treatment group. Tumors were measured for growth out to 36 days and examined for tumor presence at 40 days. BPA and control groups were sacrificed at day 18 due to excessive tumor growth.

The nature of series [5]: Solubility. In kind it is physicochemical.
For series [6], the system named is AsPC-1 cells. In words: Uptake of BPA and dipeptides in PEPT1 high expressing cells. In kind it is cell-based, human. The note with it: PEPT1 high expressing AsPC1 cells. The procedure: The indicated cancer cell line (A) or FaDu cells (B) were harvested from culture and washed twice with PBS. Cell lines were adjusted to 2 million cells/ml in Hanks Balanced Salt Solution (HBSS). BPA or dipeptide boron compounds were added to cells at the final concentration of 2.5 mM in HBSS and the treated cells were incubated at 37° C. 5% CO2 for 2 hrs with shaking. The cells were collected by centrifugation; washed with cold PBS twice and reconstituted in 1 ml of cold PBS. Then, 50 µl of cell suspension was removed, pelleted, and lysed using RIPA buffer and the protein concentration was determined using BCA assay. The remaining 950 µl was used for boron compounds uptake measurements using ICP-OES.
To this end, 0.5 mL of concentrated nitric acid was added to each cell pellet in a 15 mL conical tube. The tubes were capped and placed in an oven set at 80° C. for 3 hours. […] The boron content in each sample was then measured on an Agilent 5110 ICP-OES using an Agilent SPS4 Autosampler for sample introduction.
The data was analyzed using Agilent’s ICP Expert Software, version 7.4.2.10790. Boron was measured axially at the 249.772 nm wavelength and the internal standard Beryllium was measured axially at the 313.042 nm wavelength. […] Once determined, the boron measurement for each sample was normalized to protein content and final boron uptake results were expressed as ng boron/mg protein. […]

Series [7] has as its system FaDu, Detroit-562, MeWo, HCC-1954, A549 and AsPC-1 human cancer xenograft models. In words: Dose escalation of boron delivery, all tested xenograft models. In kind it is in vivo, CB17 SCID mice. The settings on record: 1000 mg/kg, 120 minutes. The procedure: Tumors were harvested 120 minutes following treatment and boron content determined by ICP-OES. Data are the means ± SD of 5 mice per treatment group.

The subject of series [8] is CT26 xenografts. In words: BNCT study, 12 or 6 minute irradiation at 5 MW. The note with it: 800 mg/kg, 12 minutes irradiation at 5 MW, monitored to 22 days. Format: in vivo, BALB/c mice. The procedure:
Following one (1) hour of treatment time, mice were irradiated for either 12 minutes (33(A)) or 6 minutes (33(B)) at the Kyoto University Research Reactor (Kyoto, Japan) 1 set at 5 megawatts. Data are the means ± SD of 3 mice per treatment group. Tumors were measured for growth out to 22 days.

SMILES strings stand for the structures. Entries after “also recorded” stand apart in the source; their conditions may differ.

In the case of `N[C@@H](Cc1c[nH]cn1)C(=O)N[C@@H](Cc1ccc(B(O)O)cc1)C(=O)O` [His-BPA, Histidine-BPA], the “boron in the kidneys and pancreas compared to BPA-F” value in series [1] is on record as “Significantly higher amounts of boron”. The “effect of Gly-SAR on boron uptake” value in series [2] is “dose dependent inhibitory effect”; in series [3] (0.8 mM test compound, with and without Gly-SAR), “no effect”. In addition, the “boron signal in PEPT1 negative FaDu cells” value in series [3] (0.8 mM) is on record as “does deliver a boron signal”. For the same compound, the “visual inspection and histological examination of the tumor area” value in series [4] (one treated mouse) is “lack of tumor tissue and only scar tissue at the original tumor site”. The “tumor growth after BNCT” value is “significant tumor regression” in series [4] (sustained out to 36 days); “significant and similar growth inhibition, even regression” in series [8]. Also, in series [5], the “solubility (in words, compared to BPA)” value was “high solubility; also recorded: improved solubility”. In addition, the “boron uptake compared to BPA” value in series [6] is “to a higher level than BPA”. In series [7], the “tumor boron compared to BPA at 200 mg/kg” value is “higher boron levels”.
